Source: the NIST ThermoML archive (doi:10.1021/je049793l)
± gives the expanded uncertainty stated by the source.

Key:
[1] = 298.15 K; 101.3 kPa; Liquid
[2] = xn = mol fraction of the nth substance listed; details: 298.15 K, 101.3 kPa, Liquid

## Cc1ccccc1C [1,2-dimethylbenzene]
[1]
  mass density: 875.2 ± 1 kg/m3
  speed of sound: 1349 ± 3 m/s
  viscosity: 0.768 ± 0.013 mPa·s

## Cc1ccccc1C [1,2-dimethylbenzene] + CCC(C)=O
[2]; x1 = 1
  mass density: 875.2 ± 1 kg/m3
  speed of sound: 1349 ± 3 m/s
  viscosity: 0.768 ± 0.013 mPa·s

## Cc1cccc(C)c1 [1,3-dimethylbenzene]
[1]
  mass density: 859.4 ± 1 kg/m3
  speed of sound: 1323 ± 4 m/s
  viscosity: 0.587 ± 0.011 mPa·s

## Cc1cccc(C)c1 [1,3-dimethylbenzene] + CCC(C)=O
[2]; x1 = 0.0428
  mass density: 803.5 ± 0.9 kg/m3
  speed of sound: 1204 ± 4 m/s
  viscosity: 0.384 ± 0.009 mPa·s
[2]; x1 = 0.1084
  mass density: 809.2 ± 0.9 kg/m3
  speed of sound: 1218 ± 4 m/s
  viscosity: 0.398 ± 0.009 mPa·s
[2]; x1 = 0.2261
  mass density: 818.3 ± 0.9 kg/m3
  speed of sound: 1240 ± 4 m/s
  viscosity: 0.422 ± 0.009 mPa·s
[2]; x1 = 0.3524
  mass density: 827 ± 0.9 kg/m3
  speed of sound: 1256 ± 4 m/s
  viscosity: 0.448 ± 0.01 mPa·s
[2]; x1 = 0.4941
  mass density: 835.7 ± 0.9 kg/m3
  speed of sound: 1273 ± 4 m/s
  viscosity: 0.478 ± 0.01 mPa·s
[2]; x1 = 0.646
  mass density: 844.1 ± 0.9 kg/m3
  speed of sound: 1293 ± 4 m/s
  viscosity: 0.51 ± 0.01 mPa·s
[2]; x1 = 0.8137
  mass density: 852 ± 1 kg/m3
  speed of sound: 1312 ± 4 m/s
  viscosity: 0.546 ± 0.011 mPa·s
[2]; x1 = 0.9235
  mass density: 856.7 ± 1 kg/m3
  speed of sound: 1320 ± 4 m/s
  viscosity: 0.57 ± 0.011 mPa·s
[2]; x1 = 1
  mass density: 859.4 ± 1 kg/m3
  speed of sound: 1323 ± 4 m/s
  viscosity: 0.587 ± 0.011 mPa·s

## Cc1ccc(C)cc1 [1,4-dimethylbenzene]
[1]
  mass density: 856.1 ± 1 kg/m3
  speed of sound: 1316 ± 3 m/s
  viscosity: 0.609 ± 0.011 mPa·s

## Cc1ccc(C)cc1 [1,4-dimethylbenzene] + CCC(C)=O
[2]; x1 = 1
  mass density: 856.1 ± 1 kg/m3
  speed of sound: 1316 ± 3 m/s
  viscosity: 0.609 ± 0.011 mPa·s

## CCC(C)=O [butanone]
[1]
  mass density: 799.6 ± 0.9 kg/m3
  speed of sound: 1195 ± 3 m/s
  viscosity: 0.376 ± 0.009 mPa·s

## CCC(C)=O [butanone] + CC(C)c1ccccc1
[2]; x2 = 0
  mass density: 799.6 ± 0.9 kg/m3
  speed of sound: 1195 ± 3 m/s
  viscosity: 0.376 ± 0.009 mPa·s

## CCC(C)=O [butanone] + Cc1ccc(C)cc1
[2]; x2 = 0
  mass density: 799.6 ± 0.9 kg/m3
  speed of sound: 1195 ± 3 m/s
  viscosity: 0.376 ± 0.009 mPa·s
[2]; x2 = 0.0429
  mass density: 806 ± 0.9 kg/m3
  speed of sound: 1218 ± 3 m/s
  viscosity: 0.392 ± 0.009 mPa·s
[2]; x2 = 0.1074
  mass density: 813.8 ± 0.9 kg/m3
  speed of sound: 1237 ± 3 m/s
  viscosity: 0.414 ± 0.009 mPa·s
[2]; x2 = 0.2235
  mass density: 823.5 ± 0.9 kg/m3
  speed of sound: 1257 ± 3 m/s
  viscosity: 0.444 ± 0.009 mPa·s
[2]; x2 = 0.3501
  mass density: 830.4 ± 0.9 kg/m3
  speed of sound: 1272 ± 3 m/s
  viscosity: 0.471 ± 0.01 mPa·s
[2]; x2 = 0.4895
  mass density: 836.6 ± 0.9 kg/m3
  speed of sound: 1289 ± 3 m/s
  viscosity: 0.5 ± 0.01 mPa·s
[2]; x2 = 0.6419
  mass density: 842.9 ± 0.9 kg/m3
  speed of sound: 1299 ± 3 m/s
  viscosity: 0.533 ± 0.01 mPa·s
[2]; x2 = 0.8117
  mass density: 849.6 ± 1 kg/m3
  speed of sound: 1308 ± 3 m/s
  viscosity: 0.572 ± 0.011 mPa·s
[2]; x2 = 0.9213
  mass density: 853.2 ± 1 kg/m3
  speed of sound: 1313 ± 3 m/s
  viscosity: 0.596 ± 0.011 mPa·s

## CCC(C)=O [butanone] + Cc1cccc(C)c1
[2]; x2 = 0
  mass density: 799.6 ± 0.9 kg/m3
  speed of sound: 1195 ± 4 m/s
  viscosity: 0.376 ± 0.009 mPa·s

## CCC(C)=O [butanone] + Cc1ccccc1C
[2]; x2 = 0
  mass density: 799.6 ± 0.9 kg/m3
  speed of sound: 1195 ± 3 m/s
  viscosity: 0.376 ± 0.009 mPa·s
[2]; x2 = 0.0437
  mass density: 805.6 ± 0.9 kg/m3
  speed of sound: 1208 ± 3 m/s
  viscosity: 0.39 ± 0.009 mPa·s
[2]; x2 = 0.1095
  mass density: 813.7 ± 0.9 kg/m3
  speed of sound: 1222 ± 3 m/s
  viscosity: 0.412 ± 0.009 mPa·s
[2]; x2 = 0.2288
  mass density: 825.7 ± 0.9 kg/m3
  speed of sound: 1244 ± 3 m/s
  viscosity: 0.451 ± 0.01 mPa·s
[2]; x2 = 0.3564
  mass density: 836.2 ± 0.9 kg/m3
  speed of sound: 1266 ± 3 m/s
  viscosity: 0.493 ± 0.01 mPa·s
[2]; x2 = 0.4969
  mass density: 846.1 ± 0.9 kg/m3
  speed of sound: 1288 ± 3 m/s
  viscosity: 0.542 ± 0.011 mPa·s
[2]; x2 = 0.65
  mass density: 856 ± 1 kg/m3
  speed of sound: 1310 ± 3 m/s
  viscosity: 0.601 ± 0.011 mPa·s
[2]; x2 = 0.8165
  mass density: 865.9 ± 1 kg/m3
  speed of sound: 1331 ± 3 m/s
  viscosity: 0.673 ± 0.012 mPa·s
[2]; x2 = 0.9244
  mass density: 871.7 ± 1 kg/m3
  speed of sound: 1339 ± 3 m/s
  viscosity: 0.727 ± 0.013 mPa·s

## CC(C)c1ccccc1 [isopropylbenzene]
[1]
  mass density: 857.1 ± 1 kg/m3
  speed of sound: 1338 ± 3 m/s
  viscosity: 0.739 ± 0.013 mPa·s

## CC(C)c1ccccc1 [isopropylbenzene] + CCC(C)=O
[2]; x1 = 0.0377
  mass density: 805 ± 0.9 kg/m3
  speed of sound: 1204 ± 3 m/s
  viscosity: 0.388 ± 0.009 mPa·s
[2]; x1 = 0.0964
  mass density: 812.2 ± 0.9 kg/m3
  speed of sound: 1217 ± 3 m/s
  viscosity: 0.408 ± 0.009 mPa·s
[2]; x1 = 0.2025
  mass density: 821.7 ± 0.9 kg/m3
  speed of sound: 1240 ± 3 m/s
  viscosity: 0.445 ± 0.009 mPa·s
[2]; x1 = 0.3251
  mass density: 829.5 ± 0.9 kg/m3
  speed of sound: 1262 ± 3 m/s
  viscosity: 0.486 ± 0.01 mPa·s
[2]; x1 = 0.4599
  mass density: 835.4 ± 0.9 kg/m3
  speed of sound: 1279 ± 3 m/s
  viscosity: 0.535 ± 0.01 mPa·s
[2]; x1 = 0.615
  mass density: 842 ± 0.9 kg/m3
  speed of sound: 1290 ± 3 m/s
  viscosity: 0.592 ± 0.011 mPa·s
[2]; x1 = 0.7937
  mass density: 849.2 ± 1 kg/m3
  speed of sound: 1298 ± 3 m/s
  viscosity: 0.66 ± 0.012 mPa·s
[2]; x1 = 0.9123
  mass density: 853.9 ± 1 kg/m3
  speed of sound: 1308 ± 3 m/s
  viscosity: 0.705 ± 0.012 mPa·s
[2]; x1 = 1
  mass density: 857.1 ± 1 kg/m3
  speed of sound: 1338 ± 3 m/s
  viscosity: 0.739 ± 0.013 mPa·s
